Test results published in EP0093484A2, “Antibacterial monic acid derivatives” (BEECHAM GROUP PLC, priority 1982, dated 1983).

How the values were obtained:
[1] = tested on: Pasteurella multocida 1633; experiment: Human bacteria, MIC by serial dilution in nutrient agar; type: cell-based; details: nutrient agar with 5% chocolated horse blood, 18 hours at 37°C
[2] = tested on: Haemophilus influenzae Q1; experiment: as above; type: cell-based; details: nutrient agar with 5% chocolated horse blood, 18 hours at 37°C
[3] = tested on: M. bovis NCTC 10131; experiment: microbe, parasite or virus in culture; type: cell-based; details: M. bovis NCTC 10131; Friis broth solidified with 0.9% agarose; 6 days incubation at 37°C
[4] = tested on: Bord. bronchiseptica B08; experiment: Veterinary bacteria, MIC by two fold serial dilution in agar; details: Bord. bronchiseptica B08; Diagnostic Sensitivity Test Agar; 18 hours at 37°C
Method: (§1) The activity of the compounds of the Examples against various organisms important in veterinary infections was determined using two fold serial dilutions in Diagnostic Sensitivity Test Agar inoculated with 10^4 organisms.

[5] = tested on: Haemophilus influenzae Wy21; experiment: Human bacteria, MIC by serial dilution in nutrient agar; type: cell-based; details: nutrient agar with 5% chocolated horse blood, 18 hours at 37°C
[6] = tested on: Corynebacterium xerosis 9755; experiment: as above; type: cell-based; details: nutrient agar with 5% chocolated horse blood, 18 hours at 37°C
[7] = tested on: K. aerogenes A; experiment: as above; type: cell-based; details: nutrient agar with 5% chocolated horse blood, 18 hours at 37°C
[8] = tested on: Staph. aureus 152 (pen. sens.); experiment: Veterinary bacteria, MIC by two fold serial dilution in agar; details: Staph. aureus 152 (pen. sens.); Diagnostic Sensitivity Test Agar; 18 hours at 37°C
Method: as §1

[9] = tested on: M. suipneumoniae TAM 6N; experiment: Anti-mycoplasmal activity, MIC in Friis broth agarose; type: cell-based; details: Friis broth solidified with 0.9% agarose, 6 days incubation at 37°C
[10] = tested on: Strep. uberis SPU1; experiment: Veterinary bacteria, MIC by two fold serial dilution in agar; details: Strep. uberis SPU1; Diagnostic Sensitivity Test Agar; 18 hours at 37°C
Method: as §1

[11] = tested on: M. gallisepticum S6; experiment: Anti-mycoplasmal activity, MIC in Friis broth agarose; type: cell-based; details: Friis broth solidified with 0.9% agarose, 6 days incubation at 37°C
[12] = tested on: M. suipneumoniae ATCC 25095; experiment: as above; type: cell-based; details: Friis broth solidified with 0.9% agarose, 6 days incubation at 37°C
[13] = tested on: Strep. pneumoniae CN33; experiment: Human bacteria, MIC by serial dilution in nutrient agar; type: cell-based; details: nutrient agar with 5% chocolated horse blood, 18 hours at 37°C
[14] = tested on: E. coli ESS; experiment: as above; type: cell-based; details: nutrient agar with 5% chocolated horse blood, 18 hours at 37°C
[15] = tested on: Corynebacterium pyogenes CY1; experiment: Veterinary bacteria, MIC by two fold serial dilution in agar; details: Corynebacterium pyogenes CY1; Diagnostic Sensitivity Test Agar; 18 hours at 37°C
Method: as §1

[16] = tested on: Strep. faecalis I; experiment: Human bacteria, MIC by serial dilution in nutrient agar; type: cell-based; details: nutrient agar with 5% chocolated horse blood, 18 hours at 37°C
[17] = tested on: M. suipneumoniae LABER; experiment: Anti-mycoplasmal activity, MIC in Friis broth agarose; type: cell-based; details: Friis broth solidified with 0.9% agarose, 6 days incubation at 37°C
[18] = tested on: S. typhimurium S18; experiment: Veterinary bacteria, MIC by two fold serial dilution in agar; details: S. typhimurium S18; Diagnostic Sensitivity Test Agar; 18 hours at 37°C
Method: as §1

[19] = tested on: Staph. aureus Oxford; experiment: as above; details: Staph. aureus Oxford (veterinary panel); Diagnostic Sensitivity Test Agar; 18 hours at 37°C
Method: as §1

[20] = tested on: E. coli NCTC 10418; experiment: Human bacteria, MIC by serial dilution in nutrient agar; type: cell-based; details: E. coli NCTC 10418 (human panel); nutrient agar with 5% chocolated horse blood; 18 hours at 37°C
[21] = tested on: Strep. pyogenes R80/421-A; experiment: as above; type: cell-based; details: nutrient agar with 5% chocolated horse blood, 18 hours at 37°C
[22] = tested on: Ps. aeruginosa 10662; experiment: as above; type: cell-based; details: nutrient agar with 5% chocolated horse blood, 18 hours at 37°C
[23] = tested on: M. suipneumoniae HK(2); experiment: Anti-mycoplasmal activity, MIC in Friis broth agarose; type: cell-based; details: Friis broth solidified with 0.9% agarose, 6 days incubation at 37°C
[24] = tested on: Staph. aureus W2827; experiment: Human bacteria, MIC by serial dilution in nutrient agar; type: cell-based; details: nutrient agar with 5% chocolated horse blood, 18 hours at 37°C
[25] = tested on: Sarcina lutea 8340; experiment: as above; type: cell-based; details: nutrient agar with 5% chocolated horse blood, 18 hours at 37°C
[26] = tested on: S. dublin S7; experiment: Veterinary bacteria, MIC by two fold serial dilution in agar; details: S. dublin S7; Diagnostic Sensitivity Test Agar; 18 hours at 37°C
Method: as §1

[27] = tested on: Past. haemolytica PA5; experiment: as above; details: Past. haemolytica PA5; Diagnostic Sensitivity Test Agar; 18 hours at 37°C
Method: as §1

[28] = tested on: Staph. aureus B4 (pen. resistant); experiment: as above; details: Staph. aureus B4 (pen. resistant); Diagnostic Sensitivity Test Agar; 18 hours at 37°C
Method: as §1

[29] = tested on: M. dispar NCTC 10125; experiment: Anti-mycoplasmal activity, MIC in Friis broth agarose; type: cell-based; details: Friis broth solidified with 0.9% agarose, 6 days incubation at 37°C
[30] = tested on: P. mirabilis 889; experiment: Human bacteria, MIC by serial dilution in nutrient agar; type: cell-based; details: nutrient agar with 5% chocolated horse blood, 18 hours at 37°C
[31] = tested on: M. pneumoniae ATCC 15492; experiment: Anti-mycoplasmal activity, MIC in Friis broth agarose; type: cell-based; details: Friis broth solidified with 0.9% agarose, 6 days incubation at 37°C
[32] = tested on: M. hyosynoviae ATCC 25591; experiment: as above; type: cell-based; details: Friis broth solidified with 0.9% agarose, 6 days incubation at 37°C
[33] = tested on: Past. multocida PA1; experiment: Veterinary bacteria, MIC by two fold serial dilution in agar; details: Past. multocida PA1; Diagnostic Sensitivity Test Agar; 18 hours at 37°C
Method: as §1

[34] = tested on: M. suipneumoniae JF 435; experiment: Anti-mycoplasmal activity, MIC in Friis broth agarose; type: cell-based; details: Friis broth solidified with 0.9% agarose, 6 days incubation at 37°C
[35] = tested on: E. coli E1; experiment: Veterinary bacteria, MIC by two fold serial dilution in agar; details: E. coli E1; Diagnostic Sensitivity Test Agar; 18 hours at 37°C
Method: as §1

[36] = tested on: M. hyorhinis ATCC 23234; experiment: Anti-mycoplasmal activity, MIC in Friis broth agarose; type: cell-based; details: Friis broth solidified with 0.9% agarose, 6 days incubation at 37°C
[37] = tested on: Strep. spp. 64/848-C; experiment: Human bacteria, MIC by serial dilution in nutrient agar; type: cell-based; details: nutrient agar with 5% chocolated horse blood, 18 hours at 37°C
[38] = tested on: Bord. bronchiseptica BO9; experiment: Veterinary bacteria, MIC by two fold serial dilution in agar; details: Bord. bronchiseptica BO9; Diagnostic Sensitivity Test Agar; 18 hours at 37°C
Method: as §1

[39] = tested on: Strep. dysgalactiae SPD1; experiment: as above; details: Strep. dysgalactiae SPD1; Diagnostic Sensitivity Test Agar; 18 hours at 37°C
Method: as §1

[40] = tested on: M. suipneumoniae PW/C/210; experiment: Anti-mycoplasmal activity, MIC in Friis broth agarose; type: cell-based; details: Friis broth solidified with 0.9% agarose, 6 days incubation at 37°C

m-Methylthiobenzyl monate A [Example 5]
MIC [1]: 10 µg/mL | MIC [2]: 1.0 µg/mL | MIC [3]: 0.025 µg/mL | MIC [4]: 10 µg/mL | MIC [5]: 1.0 µg/mL | MIC [6]: >100 µg/mL | MIC [7]: >100 µg/mL | MIC [8]: .156 µg/mL | MIC [9]: 0.5 µg/mL | MIC [10]: .07 µg/mL | MIC [11]: 5.0 µg/mL | MIC [12]: 0.5 µg/mL | MIC [13]: 1.0 µg/mL | MIC [14]: 5.0 µg/mL | MIC [15]: >80 µg/mL | MIC [16]: 100 µg/mL | MIC [17]: 0.25 µg/mL | MIC [18]: >80 µg/mL | MIC [19]: .156 µg/mL | MIC [20]: >100 µg/mL | MIC [21]: 0.1 µg/mL | MIC [22]: >100 µg/mL | MIC [23]: 0.5 µg/mL | MIC [24]: 0.5 µg/mL | MIC [25]: >100 µg/mL | MIC [26]: >80 µg/mL | MIC [27]: 10 µg/mL | MIC [28]: .156 µg/mL | MIC [29]: 0.1 µg/mL | MIC [30]: >100 µg/mL | MIC [31]: 5.0 µg/mL | MIC [32]: 0.5 µg/mL | MIC [33]: 2.5 µg/mL | MIC [34]: 0.5 µg/mL | MIC [35]: >80 µg/mL | MIC [36]: 0.25 µg/mL | MIC [37]: 1.0 µg/mL | MIC [38]: 2.5 µg/mL | MIC [39]: .07 µg/mL | MIC [40]: 0.25 µg/mL
